From patent publication US9708639B2, “Method for quantifying amino acids with pyrophosphate” (TOYAMA PREFECTURE, priority 2012, dated 2017)

What was measured:
Test in all cases: Qualitative test of AARS substrate specificity (molybdenum blue method)
Type in all cases: biochemical, Thermotoga maritima MSB8 strain
Design in all cases: key: +: Activity was detected; −: Activity was not detected
[1] = biological target: T1, Thermotoga-derived TyrRS (Thermotoga maritima, UniProt Q9WYU8); details: Tyr 1 mM, other amino acids 5 mM; hydroxylamine 1000 mM; TyrRS 0.2 mg/ml (20 mU/ml); 30° C.
T1 construct: The amplification products were each inserted into pET-28a to obtain plasmids for expression of respective AARSs; His tag (N); made in house; host or cells: Escherichia coli BL21 (DE3)
T1 sequence (Q9WYU8 1-401): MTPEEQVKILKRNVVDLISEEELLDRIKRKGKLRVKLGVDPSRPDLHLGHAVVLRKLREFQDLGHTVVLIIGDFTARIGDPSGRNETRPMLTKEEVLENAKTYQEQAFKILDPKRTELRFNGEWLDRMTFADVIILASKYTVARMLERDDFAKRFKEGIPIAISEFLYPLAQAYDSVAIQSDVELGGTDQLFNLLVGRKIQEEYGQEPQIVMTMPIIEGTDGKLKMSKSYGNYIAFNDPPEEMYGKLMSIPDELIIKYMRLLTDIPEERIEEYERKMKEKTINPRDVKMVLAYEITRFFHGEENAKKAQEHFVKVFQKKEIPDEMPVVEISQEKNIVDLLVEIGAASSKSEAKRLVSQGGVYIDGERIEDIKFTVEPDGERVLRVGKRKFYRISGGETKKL
Description: (§1) A test sample containing an amino acid as the measurement subject and a reaction mixture for quantifying amino acid having the following composition were mixed. The mixture was left standing at 30° C. to allow the AARS reaction to advance. The mixture in a volume of 33 μl, 66 μl of water, and 1 μl of a 300 U/ml yeast pyrophosphatase solution were mixed, and left standing at room temperature for 20 minutes to allow the pyrophosphatase reaction to advance. Then, the reaction mixture was mixed with 100 μl of a color development solution A and 30 μl of a color developing solution B having the following compositions, then the mixture was left standing at room temperature for 5 minutes, and the absorbance was measured at 700 nm or 900 nm with a microplate reader.
(§2) Reaction mixture for quantifying amino acid: 20 mM Tris-HCl (pH 7.0), 5 mM MgCl2, 2 mM ATP, and AARS (concentrations are final concentrations obtained after mixing with test sample)
(§3) Color developing solution A: A solution obtained by mixing water and concentrated sulfuric acid at a ratio of 3:1 and dissolving (NH4)6Mo7O24.4H2O in the mixture at a concentration of 0.066 g/ml
(§4) Color developing solution B: A solution obtained by mixing water and concentrated sulfuric acid at a ratio of 10000:7 and dissolving FeSO4.7H2O in the mixture at a concentration of 145 mg/ml
(§5) Presence or absence of pyrophosphate generation was verified for the Thermotoga-derived CysRS, HisRS, LysRS, ProRS, SerRS, TrpRS, and TyrRS by using the AARS activity measurement method described in 9. and standard solutions of the various amino acids as test samples. AARSs were added to the reaction mixture at final concentrations of 0.3 (8 mU/ml), 0.1, 0.2 (3 mU/ml), 0.2, 0.1 (1 mU/ml), 0.1, 0.2 (20 mU/ml) mg/ml, respectively. The reaction mixtures were prepared so that the final concentration of Tyr was 1 mM, and the final concentrations of the other amino acids were 5 mM. As for the hydroxylamine concentration, it was added at a final concentration of 1000 mM for all the cases. Further, presence or absence of pyrophosphate production was also verified for the Thermus-derived MetRS and TyrRS by using the AARS activity measurement method described in 10. and standard solutions of the various amino acids as test samples. The reaction mixtures were prepared so that the final concentrations of the amino acids were 200 μM. Hydroxylamine was added at a final concentration of 400 mM.
(§6) Detection or no detection of the activity in the reaction mixtures containing a combination of each AARS and amino acid are shown in Table 2. The symbol + indicates detection of the activity, and − indicates no detection of the activity.

[2] = biological target: T2, Thermotoga-derived ProRS (Thermotoga maritima, UniProt Q9WYY4); details: Tyr 1 mM, other amino acids 5 mM; hydroxylamine 1000 mM; ProRS 0.2 mg/ml; 30° C.
T2 construct: His tag (C); made in house; host or cells: Escherichia coli BL21 (DE3)
T2 sequence (Q9WYY4 1-577): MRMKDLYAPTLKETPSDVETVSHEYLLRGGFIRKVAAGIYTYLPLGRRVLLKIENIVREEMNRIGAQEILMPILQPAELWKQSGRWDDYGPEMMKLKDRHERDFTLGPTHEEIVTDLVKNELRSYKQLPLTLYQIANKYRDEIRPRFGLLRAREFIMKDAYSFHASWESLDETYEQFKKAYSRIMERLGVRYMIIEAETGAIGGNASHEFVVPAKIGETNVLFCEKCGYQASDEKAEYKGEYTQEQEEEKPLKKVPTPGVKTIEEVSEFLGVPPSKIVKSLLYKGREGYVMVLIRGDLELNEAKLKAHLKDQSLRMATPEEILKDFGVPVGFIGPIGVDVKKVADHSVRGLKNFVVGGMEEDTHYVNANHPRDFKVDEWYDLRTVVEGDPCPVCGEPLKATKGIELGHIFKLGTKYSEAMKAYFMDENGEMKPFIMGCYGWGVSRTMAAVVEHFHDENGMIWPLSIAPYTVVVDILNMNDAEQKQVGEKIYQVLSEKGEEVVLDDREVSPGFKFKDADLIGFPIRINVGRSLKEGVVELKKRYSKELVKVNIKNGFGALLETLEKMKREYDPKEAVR
Description: as §1, §2, §3, §4, §5, §6

[3] = biological target: T3, Thermotoga-derived CysRS (Thermotoga maritima, UniProt Q9WZH8); details: Tyr 1 mM, other amino acids 5 mM; hydroxylamine 1000 mM; CysRS 0.3 mg/ml (8 mU/ml); 30° C.
T3 construct: The amplification products were each inserted into pET-28a to obtain plasmids for expression of respective AARSs; His tag (C); made in house; host or cells: Escherichia coli BL21 (DE3)
T3 sequence (Q9WZH8 1-460): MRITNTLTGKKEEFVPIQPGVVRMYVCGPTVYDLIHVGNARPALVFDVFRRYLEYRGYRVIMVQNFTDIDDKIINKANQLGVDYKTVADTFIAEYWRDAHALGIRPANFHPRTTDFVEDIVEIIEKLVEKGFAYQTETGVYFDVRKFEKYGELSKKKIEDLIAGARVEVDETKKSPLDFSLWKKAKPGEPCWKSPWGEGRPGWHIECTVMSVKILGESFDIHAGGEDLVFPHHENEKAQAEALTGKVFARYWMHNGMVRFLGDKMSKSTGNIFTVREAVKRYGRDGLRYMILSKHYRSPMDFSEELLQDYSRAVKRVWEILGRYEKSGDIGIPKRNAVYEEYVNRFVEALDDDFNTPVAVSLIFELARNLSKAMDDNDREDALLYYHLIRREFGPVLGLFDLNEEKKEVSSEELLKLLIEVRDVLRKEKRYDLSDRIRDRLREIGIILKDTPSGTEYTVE
Description: as §1, §2, §3, §4, §5, §6

SMILES | Detection of the activity (pyrophosphate generation), TyrRS (Thermotoga) [1] | Detection of the activity (pyrophosphate generation), ProRS [2] | Detection of the activity (pyrophosphate generation), CysRS [3]
N[C@@H](CCC(=O)O)C(=O)O [Glu, L-glutamic acid] | − | − | −
N[C@@H](CS)C(=O)O [Cys, L-cysteine] | − | − | +
N[C@@H](Cc1c[nH]cn1)C(=O)O [His, L-histidine] | − | − | −
CC[C@H](C)[C@H](N)C(=O)O [Ile, L-isoleucine] | − | − | −
O=C(O)[C@@H]1CCCN1 [Pro, L-proline] | − | + | −
NC(=O)C[C@H](N)C(=O)O [Asn, L-asparagine] | − | − | −
CC(C)C[C@H](N)C(=O)O [Leu, L-leucine] | − | − | −
N[C@@H](CC(=O)O)C(=O)O [Asp, L-aspartic acid] | − | − | −
N[C@@H](Cc1ccccc1)C(=O)O [Phe, L-phenylalanine] | − | − | −
N[C@@H](CO)C(=O)O [Ser, L-serine] | − | − | −
C[C@@H](O)[C@H](N)C(=O)O [Thr, L-threonine] | − | − | −
NCCCC[C@H](N)C(=O)O [Lys, L-lysine] | − | − | −
CSCC[C@H](N)C(=O)O [Met, L-methionine] | − | − | −
NC(=O)CC[C@H](N)C(=O)O [Gln, L-glutamine] | − | − | −
N=C(N)NCCC[C@H](N)C(=O)O [Arg, L-arginine] | − | − | −
N[C@@H](Cc1ccc(O)cc1)C(=O)O [Tyr, L-tyrosine] | + | − | −
C[C@H](N)C(=O)O [Ala, L-alanine] | − | − | −
CC(C)[C@H](N)C(=O)O [Val, L-valine] | − | − | −
NCC(=O)O [Gly, glycine] | − | − | −
N[C@@H](Cc1c[nH]c2ccccc12)C(=O)O [Trp, L-tryptophan] | − | − | −
